Experimental data as given in PMC7136958, “Targeting the pregnane X receptor using microbial metabolite mimicry” (EMBO Molecular Medicine, 2020).
Where “and” joins values, the source holds several entries; their conditions need not be identical. Identical values can stand only once. Like-named read-outs stand apart in the source and are kept apart here.

Legend:
NF-κB = assay: TNF-α-induced NF-κB reporter assay in LS174T PXR-KO cells; settings: LS174T PXR-KO, EXP3; 10 μM + TNFα 5 ng/ml; TNFa 5 ng/ml = 100; listed as RIF
Source text: In early passage PXR‐KO cells, we used PXR and NF‐κB reporter‐co‐transfected and NF‐κB reporter‐transfected PXR‐KO cell line.
CRISPR/Cas9‐mediated knockout cells were generated by Synthego Corporation (Redwood City, CA, USA). Briefly, cells were first tested negative for mycoplasma. Guide RNA was selected for high activity, specificity, and activity to create premature stop codons through frameshift mutations in the coding region via insertions and/or deletions (Indels) within exon 2 of the gene encoding human PXR (NR1I2 transcript ID ENST00000337940). […] To generate these cells, ribonucleoproteins (RNPs) containing the Cas9 protein and synthetic chemically modified sgRNA (Synthego) were electroporated into the cells using Synthego's optimized protocol. Editing efficiency is assessed upon recovery, 48 h post‐electroporation. Genomic DNA is extracted from a portion of the cells, PCR‐amplified, and sequenced using Sanger sequencing. The resulting chromatograms are processed using Synthego Inference of CRISPR Edits software (ice.synthego.com).

hPXR-LBD (PXR.1) = target: T1, hPXR-LBD (PXR.1) (Homo sapiens, UniProt O75469); assay: Isothermal titration calorimetry with His-tagged hPXR-LBD; assay type: binding
T1 construct: made in house; host or cells: E. coli BL21-Gold
T1 sequence (O75469 146-433 limits assumed): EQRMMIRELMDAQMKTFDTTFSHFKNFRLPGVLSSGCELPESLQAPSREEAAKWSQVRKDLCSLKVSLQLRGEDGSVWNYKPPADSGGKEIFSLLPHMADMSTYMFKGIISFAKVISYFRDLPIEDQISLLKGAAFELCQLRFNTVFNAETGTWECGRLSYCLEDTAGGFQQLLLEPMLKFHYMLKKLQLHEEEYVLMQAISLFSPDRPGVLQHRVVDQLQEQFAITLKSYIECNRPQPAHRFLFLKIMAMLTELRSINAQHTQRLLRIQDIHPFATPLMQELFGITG
Protocol: The cloning, expression, and purification of His‐tagged PXR‐LBD were performed as previously published (Wallace et al, 2013) with the following modifications: For protein expression, Luria–Bertani (LB) media were inoculated with a saturated culture of BL21‐Gold cells transformed with HIS‐LIC plasmid containing the PXR‐LBD construct. The mixture was allowed to shake at 37°C until the cells reached an OD600 ~ 0.6, and then, the temperature was reduced to 18°C, at which time IPTG was added (final concentration of 0.1 mM) to induce protein expression. For purification, the His‐tag was not removed, and the uncleaved protein was loaded onto the gel filtration column with buffer containing HEPES (4‐(2‐hydroxyethyl)‐1‐piperazineethanesulfonic acid) (25 mM, pH 7.5) and NaCl (150 mM).
Isothermal titration calorimetry (ITC) was carried out using a VP‐ITC microcalorimeter from MicroCal⁄Malvern Instruments (Northampton, MA, USA). […] In all the experiments, the ligand solution was injected in 10 μl aliquots into the calorimetric cell containing PXR‐LBD (ligand‐binding domain) at a concentration of 3–6 μM. […] The experiments were carried out at 37°C. The heat evolved upon each injection of the ligands was obtained from the integral of the calorimetric signal. The heat associated with binding to PXR‐LBD in the cell was obtained by subtracting the heat of dilution from the heat of reaction.

[1] = test system: CYP1A1, CYP3A4, MDR1 mRNA in HepaRG cells; settings: for 1A1 mRNA fold to C: normalised to GAPDH, fold vs UT
Protocol: Caco‐2 cells were purchased from ATCC, and authenticity was validated by multiplexed STR DNA (short tandem repeat deoxyribonucleic acid) profiling performed by Genetica. […] Cells were maintained at 37°C and 5% CO2 in a humidified incubator. […] Three HepaRG™‐derived cell lines, including 5F Clone control cells, and cells with targeted functional PXR and AhR gene knockouts, PXR‐KO and AhR‐KO, respectively, were purchased from Sigma (Czech Republic). Cells were handled according to the manufacturer's protocol. Human hepatocytes were purchased from Biopredic International (France) and Triangle Research Labs, LLC, Lonza (USA). Cultures were maintained in serum‐free medium at 37°C and 5% CO2 in a humidified incubator.
The measurements were performed in triplicate.

[2] = test system: CYP1A1, CYP3A4, MDR1 mRNA in primary human hepatocytes; assay: qRT-PCR of CYP1A1, CYP3A4, MDR1 mRNA in primary human hepatocytes (four donors); settings: for CYP1A1 (1A1) mRNA, fold to C: primary human hepatocytes, fold vs untreated (UT)
Protocol: (§1) Cells or primary human hepatocytes from four different donors (HEP200529, HEP220932, HEP200533, and HEP200538) were incubated for 24 h with test compounds; the vehicle was DMSO (0.1% v/v). Total RNA was isolated using TRI Reagent® (Molecular Research Center, Ohio, USA). cDNA was synthesized from 1,000 ng of total RNA using M‐MuLV Reverse Transcriptase (New England Biolabs, Ipswich, Massachusetts, USA) at 42°C for 60 min in the presence of random hexamers (New England Biolabs). Quantitative reverse transcriptase–polymerase chain reaction (qRT–PCR) was performed using LightCycler® 480 Probes Master on a LightCycler® 480 II apparatus (Roche Diagnostic Corporation).
(§2) The following protocol was used: An activation step at 95°C for 10 min was followed by 45 cycles of PCR (denaturation at 95°C for 10 s; annealing with elongation at 60°C for 30 s). The measurements were performed in triplicate. Gene expression was normalized per GAPDH as a housekeeping gene. […] Data are expressed as fold induction ± SD over the vehicle‐treated cells. The bar graph depicts one representative experiment of a series of experiments performed in three consecutive passages of cells. Differences were tested using one‐way ANOVA with Dunnett's post hoc test, and P < 0.05 was considered significant.

AhR = target: T2, AhR (Homo sapiens, UniProt P35869); assay: AhR reporter assay, HepG2 cells stably expressing pCYP1A1 luciferase (AZ-AHR); assay type: cell-based; settings: human; AZ-AHR cells, positive control, fold vs UT, concentration not given
T2 construct: endogenous in cells; host or cells: AZ-AHR (HepG2)
T2 sequence (P35869 11-848): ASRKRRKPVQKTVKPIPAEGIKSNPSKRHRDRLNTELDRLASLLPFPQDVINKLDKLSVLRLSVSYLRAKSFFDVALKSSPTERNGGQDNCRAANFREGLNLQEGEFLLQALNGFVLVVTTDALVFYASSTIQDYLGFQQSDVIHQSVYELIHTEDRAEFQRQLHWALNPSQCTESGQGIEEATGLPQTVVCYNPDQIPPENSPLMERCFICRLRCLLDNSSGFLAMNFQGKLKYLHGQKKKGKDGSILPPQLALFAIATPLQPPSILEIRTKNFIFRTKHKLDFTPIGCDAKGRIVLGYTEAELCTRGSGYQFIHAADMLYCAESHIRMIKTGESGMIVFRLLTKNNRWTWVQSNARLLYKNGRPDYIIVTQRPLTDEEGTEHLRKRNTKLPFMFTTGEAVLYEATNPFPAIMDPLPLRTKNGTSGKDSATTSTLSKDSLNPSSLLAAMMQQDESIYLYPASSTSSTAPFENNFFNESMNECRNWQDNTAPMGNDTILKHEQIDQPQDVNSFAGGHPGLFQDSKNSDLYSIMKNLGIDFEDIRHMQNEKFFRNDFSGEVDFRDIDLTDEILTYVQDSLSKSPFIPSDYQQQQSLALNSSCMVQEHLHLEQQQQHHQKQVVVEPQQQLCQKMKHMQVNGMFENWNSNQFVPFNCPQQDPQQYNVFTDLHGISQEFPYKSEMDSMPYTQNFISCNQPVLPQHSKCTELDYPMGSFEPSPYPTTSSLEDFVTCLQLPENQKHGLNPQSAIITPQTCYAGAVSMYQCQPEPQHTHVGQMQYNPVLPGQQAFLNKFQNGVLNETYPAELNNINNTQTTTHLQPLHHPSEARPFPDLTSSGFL
Protocol: Incubations were performed in four technical replicates.

[3] = test system: CYP1A1, CYP3A4, MDR1 mRNA in LS180 cells; assay: qRT-PCR of CYP1A1, CYP3A4, MDR1 mRNA in LS180 cells with or without (mock) transfected PXR; settings: normalised to GAPDH, fold to UT control
Protocol: as §1, §2

## CO[C@H]1/C=C/O[C@@]2(C)Oc3c(C)c(O)c4c(O)c(c(/C=N/N5CCN(C)CC5)c(O)c4c3C2=O)NC(=O)/C(C)=C\C=C\[C@H](C)[C@H](O)[C@@H](C)[C@@H](O)[C@@H](C)[C@H](OC(C)=O)[C@@H]1C [Rifampicin, reference compound]
NF-κB
  NFkB %max: 94.8% and 94.84%

## O=C(O)CCc1c[nH]c2ccccc12 [IPA, indole‐3‐propionic acid, reference compound]
hPXR-LBD (PXR.1)
  thermal signature of interaction with hPXR-LBD: did not induce a thermal signature

## Clc1cc2c(cc1Cl)Oc1cc(Cl)c(Cl)cc1O2 [TCDD, 2,3,7,8‐tetrachlorodibenzo‐p‐dioxin, reference compound]
[1]; HepaRG AHR-KO
  1A1 mRNA fold to C: 1.24 fold
[1]; HepaRG CONTROL 5F Clone
  1A1 mRNA fold to C: 151.69 fold
[1]; HepaRG PXR-KO cells, qRT-PCR normalised to GAPDH, fold vs untreated (UT)
  CYP1A1 (1A1) mRNA, fold to C: 338.18 fold
[1]; HepaRG control 5F clone, PXR-KO, AhR-KO
  CYP1A1 mRNA induction: induces
[2]; four donors
  CYP1A1 mRNA induction: induced CYP1A1 mRNA in all cells
[2]; primary human hepatocytes donor Hep200538, normalised to GAPDH, fold to UT control
  CYP1A1 mRNA fold to C: 10734.74
[2]; donor Hep200529, normalised to GAPDH
  CYP1A1 (1A1) mRNA, fold to C: 394.35 fold
[2]; donor Hep200533, normalised to GAPDH
  CYP1A1 (1A1) mRNA, fold to C: 1246.21 fold
[2]; donor Hep220932, normalised to GAPDH
  CYP1A1 (1A1) mRNA, fold to C: 962.07 fold
AhR
  fold induction at 24 h: 485
[3]; PXR-transfected LS180 cells
  CYP1A1 mRNA fold to C: 1299.13
[3]; mock-transfected LS180 cells
  CYP1A1 mRNA fold to C: 2347.10
